According to the NIST ThermoML archive (doi:10.1016/j.tca.2016.09.014):
Numbers after ± are expanded uncertainties.

How the values were obtained:
[1] = Crystal; DTA
[2] = Molar enthalpy of transition or fusion; conditions: Crystal; DSC

Row | SMILES | Normal melting temperature [1] | Molar enthalpy of transition or fusion [2]
1 | O=C(O)c1cc(-c2ccc(F)cc2F)ccc1O [2',4'-difluoro-4-hydroxy-1,1'-biphenyl-3-carboxylic acid] | 211.78 ± 5 °C | 9.22 ± 0.263 kcal/mol
2 | CCCCCCCCCCCCCCCCOC(=O)CCCCCCCCCCCCCCC [cetyl palmitate] | 41.27 ± 5 °C | 15.8 ± 0.43 kcal/mol
3 | CCCCCCCCCCCCCCCCCC(=O)O [octadecanoic acid] |  | 12.1 ± 0.335 kcal/mol
